Measured values: patent US10463664B2, “Inhibitors of HSV nucleotidyl transferases and uses therefor” (Saint Louis University, priority 2013, dated 2019)

Key:
[1] = test system: HSV-2; experiment: Anti-HSV-2 replication assay in Vero cells, titer by plaque assay; assay type: cell-based, herpes simplex virus 2; details: for Anti-HSV-2 Log10 suppression 5 μM (screening symbol) / Anti-HSV-2 Log10 suppression 50 μM (screening symbol): visual inspection; for Anti-HSV-2 Log10 suppression 5 μM / Anti-HSV-2 Log10 suppression 50 μM: moi 0.1, 24 h, relative to DMSO; for Inhibition of HSV-2 replication (in words): primary screening
Description: (§1) Anti-HSV-1 and -HSV-2 Replication Assay. Compounds to be screened were diluted in PBS supplemented to contain 2% newborn calf serum and 1% glutamine, and added in 100 μL, volume to confluent cell monolayers in 24-well cluster plates. Immediately thereafter HSV-1 and HSV-2, diluted in the supplemented PBS medium, were added to the wells in 50 μl volume such that the final concentration of compound was 50 μM and 5 μM and the multiplicity of infection was 0.1. The plates were incubated at 37° C. for 1 hour and then virus-containing inoculum was removed and the wells were washed once in PBS. Compounds, diluted to 50 μM and 5 μM in DMEM supplemented to contain 2% newborn calf serum and 1% each penicillin/streptomycin, were added at 0.5 mL/well. Plates were incubated at 37° C. an additional 23 hr, and then the plates were visually inspected through a phase contrast microscope for cytopathic effect, and for toxic effect. […] The entire contents of each well were collected by scraping. Samples were frozen at −80° C., and then subsequently thawed, sonicated, and infectious virus titer was determined by standard plaque assay on Vero cell monolayers. Because the compounds were dissolved at 10 mM in 100% DMSO, equivalent dilutions of DMSO were added to additional wells as a control for effects of the diluent. Each experiment was repeated once. EC50 values were determined as above except that serial dilutions of the compound to be tested were prepared starting at 50 μM. The inhibitory values were calculated by non-linear curve-fitting in GraphPad Prism.
(§2) Monolayers were microscopically inspected 24 hours post-infection and wells in which more cells were visually healthier than the DMSO-treated controls were collected. Viral titers in the culture lysates were then determined by standard plaque assay on Vero cells. Inhibition of viral replication was categorized as <1 log10 relative to the DMSO-treated control, 1 to 3 log10 suppression, or ≥3 log10 suppression. […] Additionally, four polyoxygenated heterocycle compounds were tested (#128, 138, 139, 140).

[2] = target: T1, HBV RNaseH (Hepatitis B virus genotype A2 subtype adw2, UniProt P03159); experiment: Biochemical inhibition of HBV RNaseH (oligonucleotide-directed RNA cleavage assay); details: compounds at 60, 20 or 10 μM
T1 construct: One of the inventors recently produced active recombinant HBV RNase H; hexahistidine; made in house; host or cells: E. coli
Description: (§3) Biochemical inhibition of HBV RNaseH and human RNaseH1 activity. […] RNaseH activity was measured using an oligonucleotide-directed RNA cleavage assay in which a DNA oligonucleotide is annealed to an internally ^32P-labeled RNA, the RNA:DNA heteroduplex is incubated with the enzyme to permit cleavage, and then the RNA cleavage products are resolved by electrophoresis and detected by autoradiography. The compounds were included in the reaction mixes at 60, 20, or 10 μM and the amount of the RNA cleavage products in the compound-containing reactions was compared to reactions in which an equivalent concentration of DMSO was added as a vehicle control. The data were quantified using ImageJ.

[3] = test system: HSV-1; experiment: Anti-HSV-1 replication assay in Vero cells, titer by plaque assay; assay type: cell-based, herpes simplex virus 1; details: for Anti-HSV-1 Log10 suppression 5 μM (screening symbol) / Anti-HSV-1 Log10 suppression 50 μM (screening symbol): visual inspection; for Anti-HSV-1 Log10 suppression 5 μM / Anti-HSV-1 Log10 suppression 50 μM: moi 0.1, 24 h, relative to DMSO; for Inhibition of HSV-1 replication (in words): primary screening
Description: as §1, §2

[4] = target: T2, human RNaseH1 (Homo sapiens, UniProt O60930); experiment: Biochemical inhibition of human RNaseH1 (oligonucleotide-directed RNA cleavage assay); details: compounds at 60, 20 or 10 μM
T2 construct: hexahistidine; made in house; host or cells: E. coli
T2 sequence (O60930 1-286): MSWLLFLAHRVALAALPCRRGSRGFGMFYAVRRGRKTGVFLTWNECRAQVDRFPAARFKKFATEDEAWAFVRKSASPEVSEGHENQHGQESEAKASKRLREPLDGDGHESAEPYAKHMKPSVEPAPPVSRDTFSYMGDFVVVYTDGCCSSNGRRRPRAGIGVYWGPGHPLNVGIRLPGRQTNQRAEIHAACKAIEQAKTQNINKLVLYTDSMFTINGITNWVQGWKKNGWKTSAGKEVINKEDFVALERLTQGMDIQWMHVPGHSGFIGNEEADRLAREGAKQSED
Description: as §3

T1 sequence (P03159 693-845): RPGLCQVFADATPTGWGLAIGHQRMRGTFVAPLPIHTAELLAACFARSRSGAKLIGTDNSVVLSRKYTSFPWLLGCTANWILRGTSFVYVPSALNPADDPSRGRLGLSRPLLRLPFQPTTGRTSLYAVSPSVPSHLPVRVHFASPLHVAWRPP

Anti-HBV RNaseH [2]	Structure (SMILES)	Anti-HSV-2 Log10 suppression 5 μM (screening symbol) [1]	Anti-HSV-2 Log10 suppression 50 μM (screening symbol) [1]	Anti-HSV-1 Log10 suppression 5 μM (screening symbol) [3]	Anti-HSV-1 Log10 suppression 50 μM (screening symbol) [3]	Inhibition of HSV-2 replication (in words) [1]	Inhibition of HSV-1 replication (in words) [3]	other results
− (no inhibition at 60 μM)	O=C(O)c1cn(C2CC2)c2cc(Cl)c(F)cc2c1=O [Compound 66]	−	−	−	+			
	O=C(O)C(=O)CC(=O)c1ccccc1 [Compound 131]					negligible inhibition	negligible inhibition	
	Cc1sc2nc(-c3ccccc3)nc(O)c2c1C [Compound 136]					negligible inhibition	negligible inhibition	
− (no inhibition at 60 μM)	N#Cc1cc2ccccc2oc1=N [Compound 21]	−	−	−	−			
	[N-]=[N+]=NCc1cccc(C(=O)CC(=O)C(=O)O)c1 [Compound 40]					negligible inhibition	negligible inhibition	
− (no inhibition at 60 μM)	NC(=O)c1c(N)sc2c1CCCCC2 [Compound 3]							Anti-HSV-2 Log10 suppression 5 μM [1]: 0.06 log10; Anti-HSV-2 Log10 suppression 50 μM [1]: 0.39 log10; Anti-HSV-1 Log10 suppression 5 μM [3]: 0.19 log10; Anti-HSV-1 Log10 suppression 50 μM [3]: −0.03 log10
+ (inhibition at 60 μM)	Cc1cc(C)c(C#N)c(=N)o1 [Compound 5]	−	−	−	−			
++ (inhibition at 20 μM)	Cc1cc(=O)oc2cc(O)c(O)cc12 [Compound 34]							Anti-Human RNaseH1 [4]: − (no inhibition at 60 μM); Anti-HSV-2 Log10 suppression 5 μM [1]: −0.07 log10; Anti-HSV-2 Log10 suppression 50 μM [1]: 3.29 log10; Anti-HSV-1 Log10 suppression 5 μM [3]: 0.08 log10; Anti-HSV-1 Log10 suppression 50 μM [3]: 2.64 log10
	C[C@@H]1CCO[C@H]2Cn3cc(C(=O)NCc4ccc(F)cc4F)c(=O)c(O)c3C(=O)N12 [Compound 73, Dolutegravir, reference compound]					negligible inhibition	negligible inhibition	
	O=C1C(=O)C(c2cc(O)c(O)c(O)c2)Oc2cc(O)ccc21 (centres unmarked) [Compound 135]					negligible inhibition	negligible inhibition	
	NC(=O)c1c(N)sc2c1CCCCC2 [Compound 22]	−	−	−	−			
− (no inhibition at 60 μM)	Cc1cc(C(F)(F)F)c(C#N)c(=O)[nH]1 [Compound 19]	−	−	−	−			
− (no inhibition at 60 μM)	CCn1cc(C(=O)O)c(=O)c2ccc(C)nc21 [Compound 70]	−	−	−	−			

Structure (SMILES)	Anti-HBV RNaseH [2]	Anti-HSV-2 Log10 suppression 5 μM (screening symbol) [1]	Anti-HSV-2 Log10 suppression 50 μM (screening symbol) [1]	Anti-HSV-1 Log10 suppression 5 μM (screening symbol) [3]	Anti-HSV-1 Log10 suppression 50 μM (screening symbol) [3]	Inhibition of HSV-2 replication (in words) [1]	Inhibition of HSV-1 replication (in words) [3]	other results
Cc1nnc(C(=O)NC(C)(C)c2nc(C(=O)NCc3ccc(F)cc3)c(O)c(=O)n2C)o1 [Compound 11, Raltegravir, reference compound]	− (no inhibition at 60 μM)							Anti-Human RNaseH1 [4]: − (no inhibition at 60 μM); Anti-HSV-2 Log10 suppression 5 μM [1]: 0.25 log10; Anti-HSV-2 Log10 suppression 50 μM [1]: 0.35 log10; Anti-HSV-1 Log10 suppression 5 μM [3]: 0.2 log10; Anti-HSV-1 Log10 suppression 50 μM [3]: 0.37 log10
